Nine compounds from patent US5919668A, “Non-reducing saccharide and its production and use” (Kabushiki Kaisha Hayashibara Seibutsu Kagaku Kenkyujo, priority 1994, dated 1999) can be followed below.

Entries after “also recorded” stand apart in the source; their conditions may differ.

The nature of data set [1]: Maillard reaction (coloration with glycine, absorbance at 480 nm). Particulars: for Coloration degree at 480 nm: 10% saccharide, 1% glycine, 50 mM phosphate buffer pH7.0, 100° C., 90 minutes, 1 cm cuvette. The data set is classed as physicochemical. The procedure: Solutions of 10% saccharide preparation PI, PII, PIII, PIV or PV prepared in Experiment 4 and 1% glycine in 50 mM phosphate buffer (pH7.0) were incubated at 100° C. for 90 minuets, cooled and determined in 1 cm cuvette for absorbance at 480 nm. As control, maltotriose, maltotetraose, maltopentaose, maltohexaose and maltoheptaose which were used as the starting materials were treated similarly as above and determined for absorbance at 480 nm.
10% High-purity trehalose preparation, purity of 99.5%, obtained by the method in Experiment 17 and 1% glycine in 50 mM phosphate buffer (pH7.0) was incubated at 100° C. for 90 minutes, cooled and measured in lcm cuvette for absorbance at 480 nm. As control, glucose and maltose were treated similarly as above and then measured for absorbance at 480 nm.

The subject of data set [2] is non-reducing saccharide-forming enzyme. The class given is biochemical, Rhizobium species M-11. Conditions: for Composition: newly formed saccharide: 20% substrate, 2 units/g, 40° C., pH7.0, 48 hours; for Composition: residual substrate: non-reducing saccharide-forming enzyme, 48 h, pH 7. The procedure:
20% Aqueous solutions of glucose, maltose, maltotriose, maltotetraose, maltopentaose, maltohexaose or maltoheptaose as substrate were prepared, added with 2 units/g substrate solid of the purified enzyme obtained in Experiment 2, allowed to react at 40° C. and pH7.0 for 48 hours, deionized and analyzed for reaction products on high-performance liquid chromatography using "WAKO BEADS WB-T-330", a product of Wako Pure Chemical Industries, Ltd., Osaka, Japan. The high-performance liquid chromatography was conducted at ambient temperature, where water as eluent was flowed at a rate of 0.5 ml/min and "Model RI-8012", a differential reflactometer commercialized by Tosoh Corp., Tokyo, Japan, was used for analysis.

Data set [3] concerns the target T1, trehalose-releasing enzyme (Rhizobium sp. M-11, UniProt Q53238).
T1 construct: M-11, about 58-68 kDa
T1 sequence (Q53238 1-596): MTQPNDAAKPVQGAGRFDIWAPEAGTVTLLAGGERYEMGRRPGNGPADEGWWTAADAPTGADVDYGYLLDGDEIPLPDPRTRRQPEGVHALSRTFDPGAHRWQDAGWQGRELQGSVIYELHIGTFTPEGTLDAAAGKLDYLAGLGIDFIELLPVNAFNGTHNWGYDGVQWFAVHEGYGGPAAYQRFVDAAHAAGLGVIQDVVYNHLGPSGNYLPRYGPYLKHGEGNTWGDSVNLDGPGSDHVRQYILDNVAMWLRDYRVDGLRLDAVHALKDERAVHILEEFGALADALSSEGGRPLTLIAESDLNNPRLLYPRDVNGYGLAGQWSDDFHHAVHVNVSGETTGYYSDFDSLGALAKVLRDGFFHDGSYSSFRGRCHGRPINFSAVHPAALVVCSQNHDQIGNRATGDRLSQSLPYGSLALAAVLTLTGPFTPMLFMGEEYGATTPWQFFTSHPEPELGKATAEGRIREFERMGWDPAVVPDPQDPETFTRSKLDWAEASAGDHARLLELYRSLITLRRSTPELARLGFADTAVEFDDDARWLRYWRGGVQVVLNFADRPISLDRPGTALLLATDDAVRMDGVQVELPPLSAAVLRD
The class given is biochemical, Rhizobium species M-11. Conditions: trehalose-releasing enzyme, 48 h, pH 7. The procedure:
Alpha-glycosyl trehaloses as substrates were prepared in accordance with the method described in Japanese Patent Application No. 349,216/93. More particularly, 20% aqueous solutions of maltotriose, maltotetraose, maltopentaose, maltohexaose or maltoheptaose as reducing partial starch hydrolysate were added with 2 units/g substrate solid of a purified non-reducing saccharide-forming enzyme obtained by the method in […], reacted at 40° C. and pH7.0 for 48 hours, heated for inactivation, filtered, deionized, concentrated in conventional manner and applied to ion exchange column chromatography on a strongly-acidic cation exchange "XT-1016" in sodium form. The ion exchange resin was packed in 3 jacketed-stainless steel columns, inner diameter of 2.0 cm, length of 1 m, and the columns were cascaded, loaded with 5 v/v % reaction saccharide liquid against the resin and injected with 55° C. water at SV0.13 for fractionation while keeping the temperature inside the columns at 55° C., thus obtaining high-purity preparations of non-reducing saccharides with glucose polymerization degrees of 3 or higher.
20% Aqueous solutions of these five types of non-reducing saccharides or alpha-glycosyl trehaloses were prepared, added with 2 units/g substrate solid of the purified trehalose-releasing enzyme obtained in Experiment 15, reacted at 40° C. and pH7.0 for 48 hours, deionized and subjected to high-performance liquid chromatography on "WAKO BEADS WB-T-330" for analysis of reaction products. As control, maltotriose, maltotetraose, maltopentaose, maltohexaose and maltoheptaose were subjected to the purified trehalose-releasing enzyme similarly as above and then analyzed on high-performance liquid chromatography.

The nature of data set [4]: Test for assimilation in vivo (blood sugar and insulin levels). Particulars: 30 g oral, healthy men. How it is done:
In accordance with the method reported by Atsuji et al., Rinsho Eiyo (Clinical Nutrition), Vol.41, No. 2, pp.200-208 (1972), 30 g of a high-purity trehalose preparation, purity of 99.5%, obtained by the method in Experiment 17 was prepared into 20 w/v % aqueous solution and orally administered to healthy men, age of 26, 27, 28, 29, 30 or 31 years, after which their bloods were periodically sampled and measured for blood sugar and insulin levels. Glucose was used as control.

A short description of data set [5]: Reducing power by the Somogyi-Nelson method, represented in terms of DE. The data set is classed as physicochemical. How it is done:
The high-purity preparations of the newly formed saccharides were determined for reducing power by the Somogyi-Nelson method and represented in terms of DE.

The nature of data set [6]: Acute toxicity test, oral administration in mice. The class given is in vivo. Particulars: mouse, in vivo; oral, mice. The procedure: (§1) Acute toxicity tests were conducted on the non-reducing saccharide preparations PI, PII, PIII, PIV and PV prepared in Experiment 4, where they were orally administered to 7 week-old dd mice. […] Thus the LD50 of these saccharides was at least 50 g/kg or higher.
(§2) An acute toxicity test was conducted on a high-purity trehalose preparation obtained by the method in Experiment 17, purity of 99.5%, where it was orally administered in mice. […] Thus its LD50 would be briefly 50 g/kg or higher.

The test system of data set [7] is mice. The data set is described as follows: Acute toxicity test, oral administration in mice. Particulars: oral, mice. The class given is in vivo. The procedure:
as §1, §2

For data set [8], the system named is pig kidney trehalase. The data set can be described thus: Degradation by pig kidney trehalase. Particulars: trehalose, or trehalose formed from PI-PV; pH5.7, 37° C., 18 hours for the latter. The data set is classed as biochemical. The procedure: In order to purify trehalose from respective reaction products, they were decolored, deionized, concentrated and subjected to column fractionation on a strongly-acidic cation exchange of sodium form "XT-1016", followed by recovering high-purity fractions with trehalose contents of 97% or higher. The fractions were then concentrated to about 65% and allowed to standing at 25° C. for 2 days to crystallize out crystalline trehalose hydrate which was then separated and dried in vacuo to obtain a high-purity preparation with a trehalose content of 99% or higher. The yields against respective starting substrates on dry solid basis were as follows: from glycosyl trehalose, 9.5%; from maltosyl trehalose, 14.9%; from maltotriosyl trehalose, 16.0%; from maltotetraosyl trehalose, 18.5%; and from maltopentaosyl trehalose, 17.7%. […] As evident from the above results, the saccharides formed by subjecting alpha-glycosyl trehaloses to the trehalose-releasing enzyme were identified to be trehalose.

Data set [9] is described as follows: Properties of products (hygroscopicity, viscosity, stability, tonicity). The class given is physicochemical.

As for `OC[C@H]1O[C@H](O[C@H]2[C@H](O)[C@@H](O)[C@@H](O[C@H]3[C@H](O)[C@@H](O)[C@@H](O[C@H]4[C@H](O)[C@@H](O)[C@@H](O[C@H]5[C@H](O)[C@@H](O)[C@@H](O[C@H]6[C@H](O)[C@@H](O)C(O)O[C@@H]6CO)O[C@@H]5CO)O[C@@H]4CO)O[C@@H]3CO)O[C@@H]2CO)[C@H](O)[C@@H](O)[C@@H]1O` (stereo partly drawn) [Maltohexaose, maltohexaose, reference compound], in [1], the “Coloration degree at 480 nm” value stood at 0.318. Also, in [2], the “Composition: newly formed saccharide” value is 93.5% and the “Composition: residual substrate” value is listed as 6.5%. The “Composition: residual substrate” value in data set [3] is given as 100%.

Consider `OC[C@H]1O[C@H](O[C@H]2[C@H](O)[C@@H](O)[C@@H](O[C@H]3[C@H](O)[C@@H](O)C(O)O[C@@H]3CO)O[C@@H]2CO)[C@H](O)[C@@H](O)[C@@H]1O` (stereo partly drawn) [Maltotriose, maltotriose, reference compound], for which the “Coloration degree at 480 nm” value in data set [1] amounted to 0.623. In addition, in data set [2], the “Composition: newly formed saccharide” value was 35.0% and the “Composition: residual substrate” value was determined as 65.0%. Further, in [3], the “Composition: residual substrate” value came to 100%.

In the case of `OC[C@H]1O[C@H](O[C@H]2[C@H](O)[C@@H](O)[C@@H](O[C@H]3[C@H](O)[C@@H](O)[C@@H](O[C@H]4[C@H](O)[C@@H](O)C(O)O[C@@H]4CO)O[C@@H]3CO)O[C@@H]2CO)[C@H](O)[C@@H](O)[C@@H]1O` (stereo partly drawn) [Maltotetraose, maltotetraose, reference compound], the “Coloration degree at 480 nm” value in data set [1] amounted to 0.475. The “Composition: newly formed saccharide” value in [2] was found to be 85.6%. Further, the “Composition: residual substrate” value is listed as 14.4% in data set [2] and 100% in data set [3].

For `OC[C@H]1O[C@H](O[C@H]2O[C@H](CO)[C@@H](O)[C@H](O)[C@H]2O)[C@H](O)[C@@H](O)[C@@H]1O` [Trehalose, alpha,alpha-trehalose], in [1], the “Coloration degree at 480 nm” value stood at 0.006. Also, in data set [1] (480 nm, with glycine), the “Coloration relative to glucose and maltose” value was 0.4-0.6%. In [4] (20 w/v % aqueous solution), the “Time of maximum blood sugar level after administration” value was in the range of 0.5 to 1 h and the “Time of maximum insulin level after administration” value was in the range of 0.5 to 1 h. The “Assimilation (in words)” value in data set [4] (glucose as control) is “trehalose behaved similarly as glucose did; also recorded: readily digested and absorbed and then metabolized and utilized as energy source”. Further, the “Reducing power (in words)” value in data set [5] was “exhibits no reducing power”. The LD50 – broadly, the dose expected to kill half of the subjects tested – in data set [6] is ≥ 50000 mg/kg. The “Animal death at the possible highest dose” value in [7] is “caused no death even in the possible highest dose”. Besides, in data set [8], the “Degradation by pig kidney trehalase (in words)” value was “degraded by the trehalase derived from pig kidney”.

As for `OC[C@H]1O[C@H](O[C@H]2O[C@H](CO)[C@@H](O)[C@H](O)[C@H]2O)[C@H](O)[C@@H](O)[C@@H]1O` [Example A-5], in data set [9], the “Hygroscopicity (in words)” value was “substantially free of hygroscopicity”.

As to `OC[C@H]1O[C@H](O[C@H]2[C@H](O)[C@@H](O)[C@@H](O[C@H]3[C@H](O)[C@@H](O)[C@@H](O[C@H]4[C@H](O)[C@@H](O)[C@@H](O[C@H]5[C@H](O)[C@@H](O)C(O)O[C@@H]5CO)O[C@@H]4CO)O[C@@H]3CO)O[C@@H]2CO)[C@H](O)[C@@H](O)[C@@H]1O` (stereo partly drawn) [Maltopentaose, maltopentaose, reference compound], the “Coloration degree at 480 nm” value in [1] stood at 0.369. In data set [2], the “Composition: newly formed saccharide” value was found to be 92.7% and the “Composition: residual substrate” value is listed as 7.3%. Also, the “Composition: residual substrate” value in [3] is 100%.

In the case of `OC[C@H]1OC(O)[C@H](O)[C@@H](O)[C@@H]1O` (stereo partly drawn) [Glucose, glucose], the “Coloration degree at 480 nm” value in [1] came to 1.671. Also, in data set [2], the “Formation of new saccharides from substrate (in words)” value is reported as “No saccharides were newly formed” and the “Composition: residual substrate” value came out at 100.0%.

Regarding `OC[C@H]1O[C@H](O[C@H]2[C@H](O)[C@@H](O)C(O)O[C@@H]2CO)[C@H](O)[C@@H](O)[C@@H]1O` (mixture of isomers) [Maltose, maltose], the “Coloration degree at 480 nm” value in data set [1] turned out to be 0.926. In data set [2], the “Formation of new saccharides from substrate (in words)” value is on record as “No saccharides were newly formed” and the “Composition: residual substrate” value is 100.0%.

As to `OC[C@H]1O[C@H](O[C@H]2[C@H](O)[C@@H](O)[C@@H](O[C@H]3[C@H](O)[C@@H](O)[C@@H](O[C@H]4[C@H](O)[C@@H](O)[C@@H](O[C@H]5[C@H](O)[C@@H](O)[C@@H](O[C@H]6[C@H](O)[C@@H](O)[C@@H](O[C@H]7[C@H](O)[C@@H](O)C(O)O[C@@H]7CO)O[C@@H]6CO)O[C@@H]5CO)O[C@@H]4CO)O[C@@H]3CO)O[C@@H]2CO)[C@H](O)[C@@H](O)[C@@H]1O` (stereo partly drawn) [Maltoheptaose, maltoheptaose, reference compound], the “Coloration degree at 480 nm” value in data set [1] came to 0.271. For the same compound, in data set [2], the “Composition: newly formed saccharide” value was determined as 93.4% and the “Composition: residual substrate” value worked out at 6.6%. Besides, the “Composition: residual substrate” value in data set [3] stood at 100%.
